Data set [1] can be described thus: Compatibility of acetic acid sources with the gelatin and plasticizer matrix. The data set is classed as physicochemical. The note with it: acetic acid source tested individually. How it is done:
Various sources of acetic acid were tested in the laboratory to determine their compatibility with the gelatin and plasticizer matrix.

The conditions of data set [2]: in softgel liquid fill materials. The source says: The Bragg brand of apple cider vinegar hardshell capsules include sodium diacetate.

On to `CC(=O)[O-].CC(=O)[O-].[Ca+2]` [Calcium acetate], for which the “compatibility with the gelatin and plasticizer matrix (reaction observed)” value (“compatibility” below) in data set [1] is “partially gelled up and liquified”.

Turning to `CC(=O)O.CC(=O)[O-].[Na+]` [Sodium diacetate], in data set [2], the “effect on softgel shell” value is “causes holes to form in the softgel shell”. In addition, the “compatibility” value in data set [1] was “corroding a hole in the gelatin and causing leakage of the fill material”.

With `CC(=O)[O-].CC(=O)[O-].[Zn+2]` [Zinc acetate], in data set [1], the “compatibility” value is “least reaction”.

Consider `CC(=O)O.NCCCC[C@H](N)C(=O)O` [Lysine acetate powder, Lysine acetate], for which the “compatibility” value in data set [1] is “completely liquefied”.
